Assay results as given in patent US8772499B2, “TRPV3 modulators” (AbbVie Inc., priority 2011, dated 2014).
Where two headings read alike, the source gives them in different places.

Experiments:
[1] = In vitro rat microsomal stability assay; assay type: in vitro ADME, rat (Sprague-Dawley); conditions: Sprague-Dawley, rat, microsomes, 0.5 h, 0.5 μM, pH 7.4
Procedure, shortened: (§1)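 NADPH-fortified liver microsome incubations at 37° C. served for both species: Sprague-Dawley rat and human.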

human TRPV3 = biological target: T1, human TRPV3 (Homo sapiens, UniProt Q8NET8); assay: In vitro antagonism of recombinant human TRPV3 activation (FLIPR Tetra calcium assay); assay type: cell-based; conditions: HEK293 cells stably expressing human TRPV3, agonist 2-APB at 80 μM
T1 construct: expressed in transfected cells
T1 sequence (Q8NET8 1-790): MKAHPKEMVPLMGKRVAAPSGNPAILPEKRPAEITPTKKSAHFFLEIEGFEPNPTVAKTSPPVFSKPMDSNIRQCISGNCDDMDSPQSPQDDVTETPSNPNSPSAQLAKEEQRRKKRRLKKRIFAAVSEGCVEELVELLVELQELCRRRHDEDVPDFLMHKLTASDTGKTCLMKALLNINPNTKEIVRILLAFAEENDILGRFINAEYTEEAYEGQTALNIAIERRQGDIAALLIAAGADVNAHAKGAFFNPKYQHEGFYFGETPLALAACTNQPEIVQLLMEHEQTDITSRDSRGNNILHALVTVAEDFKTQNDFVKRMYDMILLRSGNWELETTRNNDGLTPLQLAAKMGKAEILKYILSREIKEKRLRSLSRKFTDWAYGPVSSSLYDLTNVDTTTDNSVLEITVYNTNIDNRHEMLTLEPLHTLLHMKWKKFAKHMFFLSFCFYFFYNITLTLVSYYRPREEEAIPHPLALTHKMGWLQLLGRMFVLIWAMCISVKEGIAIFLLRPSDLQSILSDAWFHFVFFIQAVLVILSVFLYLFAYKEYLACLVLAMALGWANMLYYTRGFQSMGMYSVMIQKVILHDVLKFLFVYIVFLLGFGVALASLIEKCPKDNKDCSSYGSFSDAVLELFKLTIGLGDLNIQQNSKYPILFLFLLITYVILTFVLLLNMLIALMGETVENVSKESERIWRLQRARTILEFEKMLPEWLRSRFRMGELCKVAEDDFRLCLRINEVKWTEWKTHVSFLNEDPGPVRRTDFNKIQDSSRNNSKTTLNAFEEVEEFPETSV
Procedure, shortened: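 HEK293 cells stably expressing human TRPV3, loaded with Calcium-4 dye for 90–120 min, received compound in DPBS, then 80 μM 2-APB (EC80) 3 min later. Max-minus-min fluorescence expressed as % of 2-APB response without antagonist; IC50 values mostly averages of n≥2 runs.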

[2] = In vitro human microsomal stability assay; assay type: in vitro ADME; conditions: human, microsomes, 0.5 h, 0.5 μM, pH 7.4
Procedure, shortened: as §1

[3] = actual measured value shown parenthetically, in most cases average of at least two runs, read-out: IC50
[4] = reported range, read-out: IC50 (range class)

Structure (SMILES) | RAT MICROSOMAL STABILITY (% REMAINING AFTER 30 MINUTES) [1] [%] | IC50 (human TRPV3; [3]) [µM] | HUMAN MICROSOMAL STABILITY (% REMAINING AFTER 30 MINUTES) [2] [%] | IC50 (human TRPV3; [4]) [µM]
OC(C1CCCc2cccnc21)C1(c2ccccc2OC(F)(F)F)CCC1 (stereo not drawn) [Example 191, (anti)-5,6,7,8-tetrahydroquinolin-8-yl{1-[2-(trifluoromethoxy)phenyl]-cyclobutyl}methanol] | <0.01 | > 7.4 | <0.01 | 
OC(C1CCCc2cccnc21)C1(c2ccccc2OC(F)(F)F)CCC1 (stereo not drawn) [Example 192, (syn)-5,6,7,8-tetrahydroquinolin-8-yl{1-[2-(trifluoromethoxy)phenyl]-cyclobutyl}methanol] | <0.01 | > 20 | <0.01 | > 20
OC(C1CCc2cccnc21)C1(c2ccccc2OC(F)(F)F)CCC1 (stereo not drawn) [Example 194, (syn)-6,7-dihydro-5H-cyclopenta[b]pyridin-7-yl{1-[2-(trifluoromethoxy)-phenyl]cyclobutyl}methanol] | <0.01 | > 20 | 0.08 | > 20
OC(C1CCCc2cccnc21)C1(c2ccccc2C(F)(F)F)CCC1 (stereo not drawn) [Example 195, (anti)-5,6,7,8-tetrahydroquinolin-8-yl{1-[2-(trifluoromethyl)phenyl]-cyclobutyl}methanol] | <0.01 | > 20 | <0.01 | > 20
OC(C1CCc2cccnc21)C1(c2ccccc2C(F)(F)F)CCC1 (stereo not drawn) [Example 197, (anti)-6,7-dihydro-5H-cyclopenta[b]pyridin-7-yl{1-[2-(trifluoromethyl)-phenyl]cyclobutyl}methanol] | <0.01 | > 20 | 0.26 | > 20
OC(C1CCc2cccnc21)C1(c2ccccc2C(F)(F)F)CCC1 (stereo not drawn) [Example 198, (syn)-6,7-dihydro-5H-cyclopenta[b]pyridin-7-yl{1-[2-(trifluoromethyl)-phenyl]cyclobutyl}methanol] | <0.01 | > 20 | 0.05 | > 20
O[C@H](c1ccccn1)[C@]1(c2ccc(C(F)(F)F)cc2)C[C@H](O)C1 [Example 200, cis-3-[(S)-hydroxy(pyridin-2-yl)methyl]-3-[4-(trifluoromethyl)phenyl]-cyclobutanol] | >85 | 5.25 | >85 | 
OC(c1ccccn1)C1(c2ccc(OC(F)(F)F)cc2)CC2(C1)OCCO2 (centres unmarked) [Example 202, pyridin-2-yl{2-[4-(trifluoromethoxy)phenyl]-5,8-dioxaspiro[3.4]oct-2-yl}-methanol] | <0.01 | 5.17 | 73 | 
NC1CCCC1C(O)C1(c2cccc(C(F)(F)F)c2)CCC1 (centres unmarked) [Example 204, (2-aminocyclopentyl) {1-[3-(trifluoromethyl)phenyl]cyclobutyl}methanol] | >85 | 1.6 | >85 | 
NC1CCCC1C(O)C1(c2ccc(C(F)(F)F)cc2)CCC1 (centres unmarked) [Example 205, (2-aminocyclopentyl) {1-[4-(trifluoromethyl)phenyl]cyclobutyl}methanol] | >85 | 3.87 | >85 | 
NC1CCCC1C(O)C1(c2ccc(OC(F)(F)F)cc2)CCC1 (centres unmarked) [Example 206, (2-aminocyclopentyl) {1-[4-(trifluoromethoxy)phenyl]cyclobutyl}methanol] | 62 | 2.63 | 83 | 
NC1CCCCC1C(O)C1(c2cccc(C(F)(F)F)c2)CCC1 (centres unmarked) [Example 212, (2-aminocyclohexyl) {1-[3-(trifluoromethyl)phenyl]cyclobutyl}methanol] | 3.9 | 2.87 | >85 | 
NC1CCC1C(O)C1(c2cccc(C(F)(F)F)c2)CCC1 (centres unmarked) [Example 213, (2-aminocyclobutyl) {1-[3-(trifluoromethyl)phenyl]cyclobutyl}methanol] | 72 | 3.24 | >85 | 
N[C@@H]1CCC[C@@H]1[C@@H](O)C1(c2ccc(Cl)c(Cl)c2)CCC1 [Example 216, (R)-[(1S,2R)-2-aminocyclopentyl][1-(3,4-dichlorophenyl)cyclobutyl]-methanol] | 41 | 2.26 | >85 | 
N[C@H]1CCC[C@H]1[C@H](O)C1(c2ccc(Cl)c(Cl)c2)CCC1 [Example 217, (S)-[(1R,2S)-2-aminocyclopentyl][1-(3,4-dichlorophenyl)cyclobutyl]-methanol] | 68 | 3.99 | 73 | 
N[C@@H]1CCC[C@H]1[C@@H](O)C1(c2ccc(Cl)c(Cl)c2)CCC1 [Example 220, (R)-[(1R,2R)-2-aminocyclopentyl][1-(3,4-dichlorophenyl)cyclobutyl]-methanol] | 67 | 0.65 | >85 | 
N[C@@H]1CCC[C@@H]1[C@@H](O)C1(c2ccc(OC(F)(F)F)cc2)CCC1 [Example 221, (R)-[(1S,2R)-2-aminocyclopentyl]{1-[4-(trifluoromethoxy)phenyl]-cyclobutyl}methanol] | 56 | 1.8 | 83 | 
N[C@H]1CCC[C@@H]1[C@H](O)C1(c2ccc(OC(F)(F)F)cc2)CCC1 [Example 222, (S)-[(1S,2S)-2-aminocyclopentyl]{1-[4-(trifluoromethoxy)phenyl]-cyclobutyl}methanol] | 59 | 2.35 | >85 | 
N[C@@H]1CCC[C@H]1[C@@H](O)C1(c2ccc(OC(F)(F)F)cc2)CCC1 [Example 223, (R)-[(1R,2R)-2-aminocyclopentyl]{1-[4-(trifluoromethoxy)phenyl]-cyclobutyl}methanol] | 65 | 2.07 | >85 | 
N[C@@H]1CCC[C@H]1[C@@H](O)C1(c2ccc(Cl)cc2)CCC1 [Example 224, (R)-[(1R,2R)-2-aminocyclopentyl][1-(4-chlorophenyl)cyclobutyl]methanol] | 70 | 4.84 | >85 | 
N[C@H]1CCC[C@@H]1[C@H](O)C1(c2ccc(Cl)cc2)CCC1 [Example 225, (S)-[(1S,2S)-2-aminocyclopentyl][1-(4-chlorophenyl)cyclobutyl]methanol] | 34 | 2.82 | >85 | 
